Data published in patent US11415579B2, “Assay for measuring a rate of reaction between a target and a ligand candidate” (Imperial College Innovations Ltd., priority 2016, dated 2022).

What was measured:
[1] = target: T1, human cyclin-dependent kinase 2 (Cdk2) (Homo sapiens, UniProt P24941); test: Kinetic thiol consumption assay with wild type Cdk2 (C177); type: binding; parameters: key to Rate enhancement, Cdk2 WT: k(Cdk2) divided by k(model thiol); Rate constant with Cdk2 (k(Cdk2)): unit not given here; details: for Rate constant with Cdk2 (k(Cdk2)): 500 μM ligand, 5 μM thiol, phosphate buffer pH 8; for Rate enhancement, Cdk2 WT: no additional mutations; for Rate constant with Cdk2 WT: Protein: Cdk2, cysteine position WT, in h^-1; for k(Cdk2)/k(Cdk2_mut) rate enhancement: model thiol Cdk2[C177A, F80C, K278C]; for k(Cdk2)/k(GSH) rate enhancement: model thiol glutathione
T1 construct: poly-histidine; made in house; host or cells: E. coli
How it was run: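 Rate constants came from first-order exponential decay fits of normalized fluorescence against time, with thiol (5 μM) in degassed pH 8 phosphate buffer containing 2% v/v TCEP beads and reads after 1 h at room temperature.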

Cdk2(N272C) (C177A) = target: T2, Cdk2(N272C) (C177A) (Homo sapiens, UniProt P24941, C177A/N272C); test: Kinetic thiol consumption assay with Cdk2 mutant N272C; type: binding; parameters: key to Rate enhancement, Cdk2 N272: rate constant with Cdk2 ÷ rate constant with model thiol (fold); details: for Rate enhancement, Cdk2 N272: Cdk2 N272, additional mutation C177A; for Rate constant with Cdk2 N272C: Protein: Cdk2, cysteine position N272C, additional mutation C177A, in h^-1
T2 construct: poly-histidine; made in house; host or cells: E. coli
How it was run: (§1)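 Thiol consumption was monitored kinetically using 5 μM Cdk2 (C177A plus one introduced cysteine) in degassed phosphate buffer at pH 8 with TCEP beads. Plates were kept 1 h at room temperature before fluorescence reading, and rate constants came from exponential decay fitting.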

Cdk2(S276C) (C177A) = target: T3, Cdk2(S276C) (C177A) (Homo sapiens, UniProt P24941, C177A/S276C); test: Kinetic thiol consumption assay with Cdk2 mutant S276C; type: binding; parameters: key to Rate enhancement, Cdk2 S276C: rate constant with Cdk2 ÷ rate constant with model thiol (fold); details: additional mutation C177A; for Rate constant with Cdk2 S276C: Protein: Cdk2, cysteine position S276C, in h^-1
T3 construct: poly-histidine; made in house; host or cells: E. coli
How it was run: as §1

Cdk2[C177A, F80C, K278C] = target: T4, Cdk2[C177A, F80C, K278C] (Homo sapiens, UniProt P24941, C177A/F80C/K278C); test: Kinetic thiol consumption assay with mutant Cdk2 as model thiol; type: binding; parameters: unit not given here; details: 500 μM ligand, 5 μM thiol, phosphate buffer pH 8
T4 construct: poly-histidine; made in house; host or cells: E. coli
How it was run: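 First-order rate constants were derived by exponential-decay fitting of DMSO/thiol-normalized fluorescence (380/470 nm) over time at room temperature. Thiol was 5 μM E. coli-expressed His-tagged Cdk2 mutant C177A/F80C/K278C in degassed pH 8 phosphate buffer containing 2% v/v TCEP beads.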

[2] = Kinetic thiol consumption assay with model thiol glutathione; type: physicochemical; parameters: Rate constant with glutathione (k(GSH)): unit not given here; details: for Rate constant with glutathione (k(GSH)): 500 μM ligand, 5 μM thiol, phosphate buffer pH 8; for Rate constant with Glutathione: Protein: Glutathione, cysteine position NA, in h-1
How it was run: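 First, 5 μM glutathione in degassed phosphate buffer (pH 8) receives immobilized TCEP beads (2% v/v). Then acrylamide is added and plates incubate 1 h at room temperature. Finally, fluorescence (380/470 nm) is normalized and fitted to first-order decay for rate constants.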

Cdk2(R122C) (C177A) = target: T5, Cdk2(R122C) (C177A) (Homo sapiens, UniProt P24941, C177A/R122C); test: Kinetic thiol consumption assay with Cdk2 mutant R122C; type: binding; parameters: key to Rate enhancement, Cdk2 R122C: rate constant with Cdk2 ÷ rate constant with model thiol (fold); details: additional mutation C177A; for Rate constant with Cdk2 R122C: Protein: Cdk2, cysteine position R122C, in h-1
T5 construct: poly-histidine; made in house; host or cells: E. coli
How it was run: as §1

Cdk2(H71C) (C177A) = target: T6, Cdk2(H71C) (C177A) (Homo sapiens, UniProt P24941, C177A/H71C); test: Kinetic thiol consumption assay with Cdk2 mutant H71C; type: binding; parameters: key to Rate enhancement, Cdk2 H71C: rate constant with Cdk2 ÷ rate constant with model thiol (fold); details: additional mutation C177A; for Rate constant with Cdk2 H71C: Protein: Cdk2, cysteine position H71C, in h^-1
T6 construct: poly-histidine; made in house; host or cells: E. coli
How it was run: as §1

Cdk2(T182C) (C177A) = target: T7, Cdk2(T182C) (C177A) (Homo sapiens, UniProt P24941, C177A/T182C); test: Kinetic thiol consumption assay with Cdk2 mutant T182C; type: binding; parameters: key to Rate enhancement, Cdk2 T182C: rate constant with Cdk2 ÷ rate constant with model thiol (fold); details: additional mutation C177A; for Rate constant with Cdk2 T182C: Protein: Cdk2, cysteine position T182C, in h^-1
T7 construct: poly-histidine; made in house; host or cells: E. coli
How it was run: as §1

Cdk2(S181C) (C177A) = target: T8, Cdk2(S181C) (C177A) (Homo sapiens, UniProt P24941, C177A/S181C); test: Kinetic thiol consumption assay with Cdk2 mutant S181C; type: binding; parameters: key to Rate enhancement, Cdk2 S181C: rate constant with Cdk2 ÷ rate constant with model thiol (fold); details: additional mutation C177A; for Rate constant with Cdk2 S181C: Protein: Cdk2, cysteine position S181C, in h^-1
T8 construct: poly-histidine; made in house; host or cells: E. coli
How it was run: as §1

Cdk2(C177A, F80C) = target: T9, Cdk2(C177A, F80C) (Homo sapiens, UniProt P24941, C177A/F80C); test: Kinetic thiol consumption assay with Cdk2 mutant F80C, incl. kobs versus concentration (Kd, k2); type: binding; parameters: key to Rate enhancement, Cdk2 F80C: Cdk2 rate constant divided by model-thiol rate constant; details: additional mutation C177A; for Rate constant with Cdk2 F80C: Protein: Cdk2, cysteine position F80C, in h^-1
T9 construct: poly-histidine; made in house; host or cells: E. coli
How it was run: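 His-tagged Cdk2(C177A/F80C) from E. coli or model thiol, 5 μM in degassed phosphate buffer pH 8 with TCEP beads, reacted with acrylamide ligands; fluorescence (ex/em 380/470 nm) normalized to DMSO control and fitted to first-order decay for kobs. Kd and k2 obtained from hyperbolic fit of kobs versus ligand concentration.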

SMILES	Rate constant with Cdk2 (k(Cdk2)) [1]	Rate enhancement, Cdk2 WT [1]	Rate constant with Cdk2 WT [1]	k(Cdk2)/k(Cdk2_mut) rate enhancement [1]	k(Cdk2)/k(GSH) rate enhancement [1]	Rate enhancement, Cdk2 N272 (Cdk2(N272C) (C177A))	Rate constant with Cdk2 N272C (Cdk2(N272C) (C177A))	Rate enhancement, Cdk2 S276C (Cdk2(S276C) (C177A))	Rate constant with Cdk2 S276C (Cdk2(S276C) (C177A))	Rate constant with Cdk2[C177A, F80C, K278C] (k(Cdk2_mut)) (Cdk2[C177A, F80C, K278C])	Rate constant with glutathione (k(GSH)) [2]	Rate constant with Glutathione [2]	Rate enhancement, Cdk2 R122C (Cdk2(R122C) (C177A))	Rate constant with Cdk2 R122C (Cdk2(R122C) (C177A))	Rate enhancement, Cdk2 H71C (Cdk2(H71C) (C177A))	Rate constant with Cdk2 H71C (Cdk2(H71C) (C177A))	Rate enhancement, Cdk2 T182C (Cdk2(T182C) (C177A))	Rate constant with Cdk2 T182C (Cdk2(T182C) (C177A))	Rate enhancement, Cdk2 S181C (Cdk2(S181C) (C177A))	Rate enhancement, Cdk2 F80C (Cdk2(C177A, F80C))	other results
C=CC(=O)N1CCC2(CCCCCC2)C1 [CA-093]	0.00196	0.2573	0.003412	0.3873	0.2651	0.4207	0.005578	1.327	0.0176	0.00507	0.0074	0.01326	0.311	0.004124	0.5753	0.007628	4.072	0.05399	0.776	1.271	Rate constant with Cdk2 S181C (Cdk2(S181C) (C177A)): 0.01029; Rate constant with Cdk2 F80C (Cdk2(C177A, F80C)): 0.01686
C=CC(=O)NC1C2C3CCC(C3)C12 (stereo not shown) [CA-097]	0.00152	0.1544	0.001519	0.3735	0.2854	0.5898	0.005802	0.8141	0.008009	0.00407	0.00533	0.009838	0.3499	0.003442	0.1566	0.001541	1.447	0.01424	0	0.1887	Rate constant with Cdk2 F80C (Cdk2(C177A, F80C)): 0.001856
C=CC(=O)N1CC2CCCCCCC21 (stereo not shown) [CA-098]	0.01499	0.9446	0.0242	2.745	0.9287	6.698	0.1716	3.196	0.08188	0.00546	0.01614	0.02562	0.3481	0.008918	0.8002	0.0205	4.766	0.1221	0.8872	0.5929	Rate constant with Cdk2 S181C (Cdk2(S181C) (C177A)): 0.02273; Rate constant with Cdk2 F80C (Cdk2(C177A, F80C)): 0.01519
C=CC(=O)N1CCC(c2nnc3n2CCC3)CC1 [CA-106]	0.00145	0.5857	0.002317	0.9576	0.6367	3.031	0.01199	0.7543	0.002984	0.00151	0.00227	0.003956	0.2819	0.001115	0		3.971	0.01571	1.69	0	Rate constant with Cdk2 S181C (Cdk2(S181C) (C177A)): 0.006686
C=CC(=O)NCC1CCCN1S(=O)(=O)c1ccc(C)cc1 (stereo not shown) [CA-118]	0.00698	1.749	0.0105	1.682	2.491	61.33	0.3682	0.4087	0.002454	0.00415	0.0028	0.006004	0.3071	0.001844	0.1972	0.001184	0		4.792	0.6003	Rate constant with Cdk2 S181C (Cdk2(S181C) (C177A)): 0.02877; Rate constant with Cdk2 F80C (Cdk2(C177A, F80C)): 0.003604
